In patent publication US10144758B2, “Deuterated bile acids” (Metselex, Inc., priority 2013, dated 2018):

Tested on: primary rat hepatocytes
Assay: TGF-β1-induced apoptosis, percentage of apoptotic cells
Assay type: cell-based
Details: 1 nM TGF-β1 36 hours; 100 μM compound pre-treatment; FIG. 8B
Description: Primary rat hepatocytes were isolated from male rats (100-150 grams) by collagenase perfusion (as described by Solá S, et al., 2003, Journal of Biological Chemistry 278: 48831-48838)). Briefly, rats were anesthetized with phenobarbital sodium (100 mg/kg body weight) injected into the peritoneal cavity. After administration of heparin (200 units/kg body weight) in the tail vein, the animal's abdomen was opened and the portal vein exposed and cannulated. The liver was then perfused at 37° C. in situ with a calcium-free Hanks' Balanced Salt Solution (HBSS) for about 10 minutes, and then with 0.05% collagenase type IV in calcium-present HBSS for another 10 minutes. […] Cell viability was determined by trypan blue exclusion and was typically 80-85%. […] Fluorescence was visualized using an Axioskop fluorescence microscope (Carl Zeiss GmbH). Blue-fluorescent nuclei were scored blindly and categorized according to the condensation and staining characteristics of chromatin. […] Five random microscopic fields per sample containing approximately 150 nuclei were counted, and mean values expressed as the percentage of apoptotic nuclei. […] Results are expressed as means±SEM of at least three experiments. *p<0.01 from control; § p<0.05 and †p<0.01 from TGF-β1.

Compound	reduction of the percentage of apoptotic cells [%]
7,8-[^2H]-3α,7α-dihydroxy-5β-cholan-24-oic acid/7-[^2H]-3α,7α-dihydroxy-5β-cholan-24-oic acid [Compound 5]	~40
C[C@H](CCC(=O)O)[C@H]1CC[C@H]2[C@@H]3[C@@H](O)C[C@@H]4C[C@H](O)CC[C@]4(C)[C@H]3CC[C@]12C [UDCA, Ursodeoxycholic acid, reference compound]	~40
